Results published in patent US8623911B2, “Boron-containing small molecules as anti-protozoal agent” (Anacor Pharmaceuticals, Inc., priority 2010, dated 2014).

Assays:
[1] = tested on: LAB 110 Eatro strain of T. b. brucei; assay: Acute Murine Model A [Murine Stage 1 HAT]; assay type: in vivo; details: for Mean Survival Days: mice infected with T. b. brucei, 10 mg/kg, BID, orally, 4 days
Method: Female Swiss Webster mice were inoculated with 250,000 parasites of the LAB 110 Eatro strain of T. b. brucei. 24 hrs post-infection, treatment was initiated by administration of a compound of the invention BID for 4 days with 20 mg/kg/dose (40 mg/kg/day) intraperitoneally (IP) or orally (PO), 5 mg/kg BID or 10 mg/kg BID orally (PO). 3 mice per group were treated with a particular compound of the invention. Mice were checked for parasitemia weekly by microscopic examination of smears prepared from tail vein blood. Animals remaining parasite free for more than 30 days beyond the end of the treatment period were considered cured. Control untreated animals typically succumbed to the infection within 4-5 days following i.p. inoculation with parasites. Mice were monitored for 30 days for survival. Pentamidine at 2 mg/kg IP was used as the positive control. After 10 days, 0% of the untreated mice were parasite free. After 10 days, 67% of mice treated PO with 10 mg/kg BID of N-(1-Hydroxy-3,4-dihydro-1H-benzo[c][1,2]oxaborinin-7-yl)-4-methoxy-benzamide (M19) were parasite free. After 30 days, 100% of mice treated PO with 10 mg/kg BID of 4-fluoro-N-(1-hydroxy-3,4-dihydro-1H-benzo[c][1,2]oxaborinin-7-yl)-2-trifluoromethyl-benzamide (M1) were parasite free.

P-gp (human MDR1) = assay: in vitro; assay type: in vitro ADME, canine; details: dog, MDCK-MDR1; 3 μM test compound; without GF120918; read-out: MDCK-MCR1 Papp
Method: (§1) MDCK-MDR1 cells (Madin-Darby canine kidney cells transfected with the human MDR1 gene) (Dr. Piet Borst, NKI-AVL, Amsterdam, The Netherlands) were seeded at 300,000 cells per well onto microporous, polycarbonate membranes in 12 well Costar Transwell® plates (Corning, Corning, N.Y.). The medium was removed and replaced with fresh cell culture medium approximately 24 hours after plating. Cells attained confluency and were ready for use in the transport assay after 72 hours of incubation.
(§2) A stock solution of each compound was prepared in DMSO at a concentration of 10 mg/mL. Stock solutions were further diluted in DMSO to a concentration of 1 mM for use in the assay. The final assay concentration of test compound in each incubation mixture was 3 μM and the final concentration of DMSO was 0.3%.
(§3) Cell cultures were pre-incubated with Transport Medium (TM), consisting of Hanks Balanced Salt Solution (HBSS), 25 mM glucose, and 25 mM HEPES, with and without the known P-gp inhibitor GF120918 (2 μM final assay concentration), for 30-60 minutes prior to the addition of test and control compounds. Following the pre-incubation period, transepithelial electrical resistance (TEER) measurements were taken on each insert to insure the integrity of the monolayer. The range for TEER values was 45-85Ω·cm^2. Transport medium was removed. Fresh transport media (1.5 mL) with or without GF120918 was added to the basolateral chambers. Solutions of the test compound were diluted into TM and added to the appropriate wells in triplicate (400 μL/well) at a final concentration of 3 μM with and without GF120918. The final concentration of DMSO was 0.3%. Control compounds were tested in triplicate at a final concentration of 3 μM. Cell monolayers were incubated with shaking (160 rpm) at 37° C. with 5% CO2 in a humidified incubator for one hour. Following the incubation, all plates were removed from the incubator. Inserts were removed from the plates and TEER measurements were again taken on each insert prior to removing samples for analysis to ensure no degradation of the tight junctions during the assay. An aliquot was taken from each receiver and diluted 1:3 with organic solvent (methanol) to assess transport of each compound across the monolayer. An aliquot was taken from each donor and diluted 1:2 with organic solvent (methanol) and then again 1:50 with matrix (50% methanol/50% TM) to assess mass balance within the study. All samples were assayed for test compound concentrations by LC-MS/MS using electrospray ionization.

MDCK-MDR1 cells = assay: in vitro; assay type: in vitro ADME, canine; details: 3 μM test compound
Method: as §1, §2, §3

[2] = tested on: TREU 667 strain of T. b. brucei; assay: Chronic CNS Model [Murine Stage 2 HAT]; assay type: in vivo; details: treated on Day 21 (10 mg/kg), negative control
Method: Mice were infected with 10,000 parasites of the TREU 667 strain of T. b. brucei. Twenty one days post-infection mice were treated with a dose of between 6 and 100 mg/kg of a compound of the invention, either BID or QD for 7 days intraperitoneally (IP) or orally (PO). Positive control mice were treated with Diminazene (10 mg/kg, IP) on Day 4 post-infection. Negative control mice were treated with Diminazene (10 mg/kg, PO) on Day 21. Since Diminazene is not able to penetrate the CNS, mice treated at Day 21 are not able to cure the infection. Starting 1 week after treatment, mice were checked for parasitemia by microscopic examination of smears prepared from tail vein blood. Parasite positive animals were immediately removed from the cages and euthanized. Animals were considered to be cured of a CNS infection if they were aparasitemic for at least 180 days after the end of the treatment period.

Row | Compound | Mean Survival Days [1] | Papp at 1 h, 3 µM (P-gp (human MDR1)) | MDCK-MCR1 AQ (MDCK-MDR1 cells) | day by which all animals relapsed to exhibit blood parasitemia [2] | mice parasite free after 10 days ([1]; female Swiss Webster mice, PO 10 mg/kg BID for 4 days, after 10 days)
1 | O=C(Nc1ccc2c(c1)B(O)OCC2)c1ccc(Cl)cc1F [M29, 4-Chloro-2-fluoro-N-(1-hydroxy-3,4-dihydro-1H-benzo[c][1,2]oxaborinin-7-yl)-benzamide] | >30 days | 80.4 ×10⁻⁶ cm/s | −0.04 |  | 
2 | O=S(=O)(Nc1ccc2c(c1)B(O)OCC2)c1ccc(Cl)cc1 [M43, 4-Chloro-N-(1-hydroxy-3,4-dihydro-1H-benzo[c][1,2]oxaborinin-7-yl)-benzenesulfonamide] |  | 64.9 ×10⁻⁶ cm/s | 0.05 |  | 
3 | O=C(Nc1ccc2c(c1)B(O)OCC2)c1ccccc1Cl [M5, 2-Chloro-N-(1-hydroxy-3,4-dihydro-1H-benzo[c][1,2]oxaborinin-7-yl)-benzamide] | 7 days | 70.7 ×10⁻⁶ cm/s | 0.1 |  | 
4 | O=C(Nc1ccc2c(c1)B(O)OCC2)c1ccc(Cl)cc1Cl [M27, 2,4-Dichloro-N-(1-hydroxy-3,4-dihydro-1H-benzo[c][1,2]oxaborinin-7-yl)-benzamide] | >30 days | 85.1 ×10⁻⁶ cm/s | −0.03 |  | 
5 | CC(C)c1ccc(S(=O)(=O)Nc2ccc3c(c2)B(O)OCC3)cc1 [M47, N-(1-Hydroxy-3,4-dihydro-1H-benzo[c][1,2]oxaborinin-7-yl)-4-isopropyl-benzenesulfonamide] | 9 days | 64.8 ×10⁻⁶ cm/s | 0.04 |  | 
6 | O=C(Nc1ccc2c(c1)B(O)OCC2)c1ccccc1C(F)(F)F [M15, N-(1-Hydroxy-3,4-dihydro-1H-benzo[c][1,2]oxaborinin-7-yl)-2-trifluoromethyl-benzamide] | >30 days |  |  |  | 
7 | CCc1ccc(C(=O)Nc2ccc3c(c2)B(O)OCC3)cc1 [M12, 4-Ethyl-N-(1-hydroxy-3,4-dihydro-1H-benzo[c][1,2]oxaborinin-7-yl)-benzamide] | 8 days | 80.3 ×10⁻⁶ cm/s | −0.04 |  | 
8 | CC(C)(C)c1ccc(C(=O)Nc2ccc3c(c2)B(O)OCC3)cc1 [M14, 4-tert-Butyl-N-(1-hydroxy-3,4-dihydro-1H-benzo[c][1,2]oxaborinin-7-yl)-benzamide] | 3.6 days |  |  |  | 
9 | Cc1ccc(S(=O)(=O)Nc2ccc3c(c2)B(O)OCC3)cc1 [M46, N-(1-Hydroxy-3,4-dihydro-1H-benzo[c][1,2]oxaborinin-7-yl)-4-methylbenzenesulfonamide] | 5 days | 77.1 ×10⁻⁶ cm/s | 0.05 |  | 
10 | CC1(C)COB(O)c2cc(NC(=O)c3ccc(F)cc3C(F)(F)F)ccc21 [M51] | 3.6 days |  |  |  | 
11 | COC(=O)c1ccc(C(=O)Nc2ccc3c(c2)B(O)OCC3)cc1 [M40, N-(1-Hydroxy-3,4-dihydro-1H-benzo[c][1,2]oxaborinin-7-yl)-terephthalamic acid methyl ester] | 4 days |  |  |  | 
12 | N=C(N)c1ccc(/N=N/Nc2ccc(C(=N)N)cc2)cc1 [Diminazene, reference compound] |  |  |  | ≤ 56 days | 
13 | O=C(Nc1ccc2c(c1)B(O)OCC2)c1ccccc1Br [M8, 2-Bromo-N-(1-hydroxy-3,4-dihydro-1H-benzo[c][1,2]oxaborinin-7-yl)-benzamide] | 5.6 days |  |  |  | 
14 | COc1ccc(C(=O)Nc2ccc3c(c2)B(O)OCC3)cc1 [M19, N-(1-Hydroxy-3,4-dihydro-1H-benzo[c][1,2]oxaborinin-7-yl)-4-methoxybenzamide] | 9 days |  |  |  | 67%
